# Laboratory results reported in publication PMC8399565, “Fluorescence Cross-Correlation Spectroscopy Yields True Affinity and Binding Kinetics of Plasmodium Lactate Transport Inhibitors” (Pharmaceuticals, 2021).
# “Also recorded” adds a separate entry of the source. Where two headings read alike, the source gives them in different places.
# Key:
# PfFNT G107S-GFP = molecular target: T1, PfFNT G107S-GFP (Plasmodium falciparum, UniProt O77389, G107S); assay: FCCS equilibrium saturation binding to solubilized PfFNT G107S mutant
# T1 construct: The DNA of full-length PfFNT from Plasmodium falciparum 3D7 was cloned as a C-terminal GFP fusion; expressed in transfected cells; intact cells for imaging, LMNG-solubilized membranes for FCCS
# T1 sequence (O77389 whole entry G107S, the tested form may be a part): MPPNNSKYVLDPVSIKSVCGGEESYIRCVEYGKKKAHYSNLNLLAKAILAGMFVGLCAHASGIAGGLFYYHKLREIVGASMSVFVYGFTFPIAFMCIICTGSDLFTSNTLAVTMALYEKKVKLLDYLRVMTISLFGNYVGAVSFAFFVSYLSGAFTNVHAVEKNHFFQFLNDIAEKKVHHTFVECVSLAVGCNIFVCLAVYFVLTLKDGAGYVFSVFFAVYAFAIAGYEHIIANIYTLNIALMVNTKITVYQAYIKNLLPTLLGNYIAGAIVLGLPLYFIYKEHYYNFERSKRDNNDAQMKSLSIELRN
# Procedure: Next, we determined inhibitor binding affinities for both PfFNT and its G107S mutant. Solubilized cell membranes containing PfFNT-GFP at a concentration of 10 nM were incubated for 1 h at ambient temperature with increasing concentrations of labeled inhibitor molecules to obtain saturation binding curves and to calculate the dissociation constant (KD) of the interactions. Equilibrium binding experiments were pipetted in biological triplicates and carried out and analyzed as described in Antoine et al..
# We next performed equilibrium saturation binding assays to assess the binding of both tracers to the mutant PfFNT G107S.
# A cell pellet was resuspended in 1 mL of ice-cold TBS (50 mM Tris-HCl (pH 7.4) and 150 mM NaCl) supplemented with cOmplete™ Protease Inhibitor Cocktail (cat. no 11697498001, Roche, Switzerland) and broken by sonication on ice, using an Ultrasonic homogenizer SONOPULS HD 2070 (Bandelin, Germany). Cell debris was removed by centrifugation for 5 min at 1100× g at 4 °C, and membranes were harvested from the cleared lysate by subsequent centrifugation at 21,000× g. The resulting pellet containing cellular membranes was lysed using a Dounce homogenizer. The receptor was solubilized by incubation in 1% LMNG (cat. no NG310, Anatrace, USA) or in another detergent (DDM, DM, CHAPS, CHS, LDAO) when conducting tests to determine the best solubilization conditions. The insolubilized membrane material was removed by centrifugation for 1 h at 21,000× g at 4 °C, and the supernatant was collected and directly subjected to FCCS analysis or stored at −80 °C.
# (§1) FCCS measurements were conducted in 384-well glass-bottom plates (cat. no PS96B-G175, SWISSCI, Switzerland) using an Insight plate reader (Evotec Technologies, Germany) fitted with a U-Apo300 40x water immersion lens, NA 1.15 (Olympus, Japan). The 488 nm laser line of an argon-ion laser and the light of a 633 nm helium–neon laser were used for excitation. Fluorescence fluctuations were recorded for 8 s with 12 repetitions and analyzed afterward using FCS+plus Analyze 1.1P (Evotec technologies, Version 1.2.5g). FCCS analysis was carried out as described previously. Briefly, for measuring the dissociation constant (KD), a titration series of 12 dilutions was prepared, where the concentration of the lysates obtained from HEK cells expressing GFP-fusions of PfFNT WT and G107S was kept constant, and the concentration of the labeled binding partner (BH296-DY647 and BH267.meta-DY647, respectively) was varied. The IC50 values were calculated by plotting the concentration from the dual labeled complex against the concentration of the competitor titrated over a concentration range from 10 µM to 10 pM. Samples were incubated for 1 h at room temperature prior to FCCS measurements to allow the formation of drug target complexes. From the resulting IC50 values, the Ki values were obtained by application of the Cheng Prusoff equation [17]. To assess the rate constants, time-resolved measurements were carried out at different concentrations of the labeled ligand. […] All KD and IC50 values, as well as kinetic parameters, were determined from three independently repeated experiments. The figures show one representative measurement; however, the calculated KD, Ki, kon and koff values are presented as an average of the three measurements ± SD. Error bars denote ± SEM.
# PfFNT wt-GFP = molecular target: T2, PfFNT wt-GFP (Plasmodium falciparum, UniProt O77389); assay: FCCS equilibrium competition binding, PfFNT wildtype; settings: for Ki: Cheng Prusoff; for complex formed in the absence of a competitor: 70 nM tracer
# T2 construct: The DNA of full-length PfFNT from Plasmodium falciparum 3D7 was cloned as a C-terminal GFP fusion; expressed in transfected cells; intact cells for imaging, LMNG-solubilized membranes or lysates for FCCS
# T2 sequence (O77389 whole entry, the tested form may be a part): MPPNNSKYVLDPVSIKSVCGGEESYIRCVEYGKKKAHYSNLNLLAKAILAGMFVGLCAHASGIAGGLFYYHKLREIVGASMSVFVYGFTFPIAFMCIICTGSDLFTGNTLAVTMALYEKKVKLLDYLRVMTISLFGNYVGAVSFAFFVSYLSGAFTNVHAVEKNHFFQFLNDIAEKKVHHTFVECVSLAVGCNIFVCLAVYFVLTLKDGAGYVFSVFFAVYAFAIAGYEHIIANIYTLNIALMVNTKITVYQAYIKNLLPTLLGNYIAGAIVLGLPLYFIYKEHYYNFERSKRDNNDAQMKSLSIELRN
# Procedure: To analyze the binding properties of unlabeled inhibitors BH296 and […], we determined their inhibition constants (Ki) in equilibrium competition binding assays. For this, we first incubated membrane preparations comprising 10 nM of PfFNT wildtype with labeled BH296 at a concentration of 70 nM. The interaction was then competed with increasing amounts of unlabeled parental compounds BH296 and BH267.meta within a concentration range of 10 pM and 10 µM. The concentration of formed complex between PfFNT-GFP and BH296-DY647 relates to the values observed in the saturation binding assays. […] The corresponding Ki values were then calculated employing the Cheng Prusoff equation [17].
# In view of the differences in complex formation of both tracers, we were also interested to see how both unlabeled compounds perform in competition experiments with BH267.meta-DY647 as a probe. The identical PfFNT-GFP membrane preparation as in the previous experiment was incubated with BH267.meta-DY647 at a concentration of 70 nM to allow for complex formation. Different amounts of competitors BH296 and BH267.meta were added to the interaction at concentrations ranging from 10 pM to 10 µM and incubated at room temperature for 1 h to allow the interaction to reach equilibrium. […] A significant amount of 20% of complex remained intact, independent of competitor concentration and incubation time. This finding is of interest because it mirrors the behavior of BH296-DY647 in saturation binding assays, where a subfraction of target appeared incapable of binding to the more space-occupying BH296 (Figure 4d, Table 2).
# as §1
# PfFNT-GFP = molecular target: T3, PfFNT-GFP (Plasmodium falciparum, UniProt O77389); assay: Live cell confocal imaging, co-localization with PfFNT-GFP in HEK293 cells; assay type: cell-based; settings: for co-localization / membrane localization: probe after 0.05% Triton X-100 permeabilization, 0.5-5 min
# T3 construct: The DNA of full-length PfFNT from Plasmodium falciparum 3D7 was cloned as a C-terminal GFP fusion; expressed in transfected cells; intact cells for imaging, LMNG-solubilized membranes or lysates for FCCS
# T3 sequence (O77389 whole entry, the tested form may be a part): as above
# Procedure: BH296-DY647 was added at a concentration of 50 nM to cultured HEK cells stably expressing PfFNT-GFP to test for co-localization of the compound with the target at the plasma membrane by confocal imaging. […] As the cytoplasmic domain of the transporter is inaccessible for the compound, we next explored possibilities to permeabilize the plasma membrane and to retain cell viability for the time of incubation. For this, we used Triton X-100 at a final concentration of 0.05%, as described previously to allow for diffusion of compounds into the cell. […] A prolonged incubation was impeded by incipient cell disintegration and membrane blebbing. We next set out to test the specificity of binding by analyzing the interaction of labeled BH296 with its unlabeled parental compound.
# The confocal laser scanning microscopy was performed on an LSM 510 confocal microscope connected to an Axiovert 200M equipped with a C-Apochromat 40×/1.2 W water immersion objective (Carl Zeiss, Germany). The red fluorophore (Dy-647) was excited using a 633 nm helium–neon laser, whereas the green fluorophore (GFP) was excited using a 488 nm argon-ion laser.
# [1] = fluorescent probe titrated against solubilized PfFNT G107S-GFP
SMILES,co-localization / membrane localization (PfFNT-GFP),Kd (PfFNT G107S-GFP) [nM],KD (equilibrium saturation binding) (PfFNT G107S-GFP; [1]),complex formed in the absence of a competitor (PfFNT wt-GFP; 10 nM PfFNT-GFP) [nM],also measured
O=C(/C=C(\O)C(F)(F)C(F)(F)F)c1cccnc1 [BH267.meta],binds efficiently,–,–,–,"Kd (PfFNT G107S-GFP; fluorescent probe titrated against solubilized PfFNT G107S-GFP, read-out: KD (equilibrium saturation binding)): 405 nM; Ki (PfFNT wt-GFP; fluorescent probe BH267.meta-DY647 70 nM, 1 h room temperature, read-out: Ki Competitor (converted)): 56 nM; Ki (PfFNT wt-GFP; fluorescent probe BH296-DY647 70 nM, 10 nM PfFNT-GFP, read-out: Ki Competitor (converted)): 66 ± 6 nM"
CCN1/C(=C/C=C/C=C/C2=[N+](CC)c3ccc(S(=O)(=O)O)cc3C2(C)CCCC(=O)NCCOCCOCCOCCOCCC(=O)NCCCOc2ccc(C(=O)/C=C(\O)C(F)(F)C(F)(F)F)cc2)C(C)(C)c2cc(S(=O)(=O)[O-])ccc21 (stereo not drawn) [BH296-DY647],clearly visible,> 2000,no affinity above background,1.5,"co-localization / binding at plasma membrane (PfFNT-GFP; 50 nM probe, absence of Triton X-100, up to 1 h): No co-localization; also recorded: could not be observed"
"O=C(C=C(O)C(F)(F)C(F)(F)F)c1ccc(O)cc1 [BH296, 4,4,5,5,5-pentafluoro-3-hydroxy-1-(4-hydroxyphenyl)pent-2-en-1-one]",–,–,failed to bind within detection limits,–,"Ki (PfFNT wt-GFP; Ki Competitor, fluorescent probe BH267.meta-DY647 70 nM, 1 h room temperature): 47 nM; Ki (PfFNT wt-GFP; Ki Competitor, fluorescent probe BH296-DY647 70 nM, 10 nM PfFNT-GFP): 48 ± 2 nM; complex remaining intact after competition (PfFNT wt-GFP; tracer BH267.meta-DY647, independent of competitor concentration and incubation time): 20%; competition of labeled tracer binding by unlabeled compound (PfFNT-GFP; preincubation with 100 µM unlabeled compound, tracer BH296-DY647): prevented binding of the labeled tracer; also recorded: completely abrogated binding"
CCN1/C(=C/C=C/C=C/C2=[N+](CC)c3ccc(S(=O)(=O)O)cc3C2(C)CCCC(=O)NCCOCCOCCOCCOCCC(=O)NCCCOc2ccc(C(=O)/C=C(\O)C(F)(F)C(F)(F)F)cn2)C(C)(C)c2cc(S(=O)(=O)[O-])ccc21 (stereo not drawn) [BH267.meta-DY647],localizes with PfFNT wildtype,405,–,3,Active Receptor (%) (PfFNT G107S-GFP; fraction of PfFNT G107S-GFP involved in binding at saturation): n.d. 100%
